According to US7557144B1, “Modulation of protein expression using carbocyclic aryl alkenoic acid derivatives” (The Johns Hopkins University, priority 2000, dated 2009):

Legend:
[1] = administered 4-PBA; cited from earlier work
[2] = target: T1, Hsc70-CFTR complexes (Homo sapiens, UniProt P11142+P13569, DEL508-508); assay: Immunoprecipitation of Hsc70-CFTR complexes from untreated IB3-1 cells with 4-PBA in lysis and wash buffers; format: binding; conditions: 1 mM 4-PBA added to RIPA lysis and wash buffers
T1 construct: endogenous in cells; host or cells: IB3-1 (RIPA lysate, immunoprecipitated with anti-Hsc70 serum)
Procedure: 5. Immunoprecipitation. Cultured cells were solubilized by incubation for 1 h at 4° C. in RIPA[50 mM Tris-Cl (pH8.0), 150 mM NaCl, 1% Triton X-100 (Bio-Rad or Fisher Scientific), 1% sodium deoxycholate (Sigma), and protease inhibitor cocktail (Sigma; used at 1:1,000 final dilution)]. Solubilized cells were then homogenized by passage 10 times through a 20-gauge needle and cleared by centrifugation at 15,000 g for 20 min at 4° C. Protein concentration was determined using the Bio-Rad DC reagents as above. Polyclonal Hsc70 antiserum was added to the cell lysates (2 μl/250 μg total protein, with equal amounts of protein at equal final concentrations for each condition within an experiment) and incubated at 4° C. over-night with gentle agitation. Immune complexes were captured with protein A-Sepharose 4B (Pharmacia Biotechnologies, Piscataway, N.J.) that had been preabsorbed with BSA for 45 min at 4° C. […]
The decrease in CFTR recovered by immunoprecipitation in proportion to the decrease in Hsc70 is consistent with 4-PBA not directly influencing the binding affinity of CFTR and Hsc70. This was further assessed by immunoprecipitating Hsc70-CFTR complexes from untreated IB3-1 cells either with or without 1 mM 4-PBA added to the RIPA lysis and wash buffers.

[3] = growth medium, 37° C., 5% CO2; previously determined (ref. 30); cited from earlier work
[4] = test system: CFTR; assay: CFTR immunoblot with anti-CFTR antibody 181 in IB3-1 cells; format: cell-based, human; conditions: increasing concentrations of 4-phenylbutyrate (FIG. 14)
Procedure: (§1) 3. Immunoblot analysis. Whole cell lysates were prepared by solubilization with 2% SDS at 95° C. Protein concentration in the lysates was determined using the Bio-Rad DC assay reagents with bovine plasma g-globulin as a standard (Bio-Rad Laboratories, Hercules, Calif.). Equal amounts of protein was resolved on 5, 7, 8, or 9% SDS-polyacrylamide gels. Proteins were transferred to nitrocellulose, and immunodetection was performed as previously described (25). Nonspecific binding was blocked by incubation of the nitrocellulose with 2% gelatin or 10% nonfat day milk. Primary antisera and secondary antibodies were applied in buffer containing 0.4% BSA overnight at 4° C. and for 1 h at room temperature, respectively. Detection of immunoreactivity was performed with the enhanced chemiluminescence reagent (ECL, Amer-sham) and fluorography. Recombinant bovine Hsc70 ([…]) was purchased from Stressgen Biotechnologies for use in constructing a standard curve of Hsc70 immunoreactivity. Immunoblots containing the bovine Hsc70 were probed with the Hsc70-specific polyclonal antiserum.
Control cells at 37° C. show band B CFTR, but virtually undetectable band C CFTR. These cells as expected show very little Hsp70, the heat shock inducible chaperone. At 27° C., a lower temperature, there is very little Hsp70 as expected, but as expected, there has been induction of band C CFTR.

[5] = test system: CF airway epithelial cells; conditions: Rubenstein et al. 1997; cited from earlier work
[6] = test system: Hsp40; assay: Hsp40 immunoblot of IB3-1 lysates; format: cell-based, human; conditions: IB3-1 cells, increasing concentrations of 4-PBA
Procedure: as §1
Whether 4-PBA would regulate expression of a number of other molecular chaperones in IB3-1 cells (FIG. 2) was assessed next. […] Hsp90 is required for correct folding and function of a number of cellular proteins (16). […] Hsp70 (Hsp72) expression is induced by heat shock and the presence of denatured proteins within the eukaryotic cell (16). In Escherichia coli, the Hsp70 homologue DnaK and the Hsp40 homologue DnaJ act to promote protein folding (16). Hdj2 is the member of the Hsp40 family that specifically interacts with and regulates the ATPase activity of Hsc70. Hdj2 also interacts with CFTR during CFTR translation (26).
FIGS. 2A-2E are more specifically explained as follows. […]
FIGS. 5A-C are explained in more detail as follows. […] Cellular homogenates were prepared in 2% SDS as described in METHODS, and 5 μg of total cellular protein were analyzed by immunoblot for Hsc70 using rabbit polyclonal antiserum, Hsp90, Hsp70, Hsp40 as described above under General Comments. […]

T1 sequence (P13569 with tags, fused parts or gaps DEL508-508): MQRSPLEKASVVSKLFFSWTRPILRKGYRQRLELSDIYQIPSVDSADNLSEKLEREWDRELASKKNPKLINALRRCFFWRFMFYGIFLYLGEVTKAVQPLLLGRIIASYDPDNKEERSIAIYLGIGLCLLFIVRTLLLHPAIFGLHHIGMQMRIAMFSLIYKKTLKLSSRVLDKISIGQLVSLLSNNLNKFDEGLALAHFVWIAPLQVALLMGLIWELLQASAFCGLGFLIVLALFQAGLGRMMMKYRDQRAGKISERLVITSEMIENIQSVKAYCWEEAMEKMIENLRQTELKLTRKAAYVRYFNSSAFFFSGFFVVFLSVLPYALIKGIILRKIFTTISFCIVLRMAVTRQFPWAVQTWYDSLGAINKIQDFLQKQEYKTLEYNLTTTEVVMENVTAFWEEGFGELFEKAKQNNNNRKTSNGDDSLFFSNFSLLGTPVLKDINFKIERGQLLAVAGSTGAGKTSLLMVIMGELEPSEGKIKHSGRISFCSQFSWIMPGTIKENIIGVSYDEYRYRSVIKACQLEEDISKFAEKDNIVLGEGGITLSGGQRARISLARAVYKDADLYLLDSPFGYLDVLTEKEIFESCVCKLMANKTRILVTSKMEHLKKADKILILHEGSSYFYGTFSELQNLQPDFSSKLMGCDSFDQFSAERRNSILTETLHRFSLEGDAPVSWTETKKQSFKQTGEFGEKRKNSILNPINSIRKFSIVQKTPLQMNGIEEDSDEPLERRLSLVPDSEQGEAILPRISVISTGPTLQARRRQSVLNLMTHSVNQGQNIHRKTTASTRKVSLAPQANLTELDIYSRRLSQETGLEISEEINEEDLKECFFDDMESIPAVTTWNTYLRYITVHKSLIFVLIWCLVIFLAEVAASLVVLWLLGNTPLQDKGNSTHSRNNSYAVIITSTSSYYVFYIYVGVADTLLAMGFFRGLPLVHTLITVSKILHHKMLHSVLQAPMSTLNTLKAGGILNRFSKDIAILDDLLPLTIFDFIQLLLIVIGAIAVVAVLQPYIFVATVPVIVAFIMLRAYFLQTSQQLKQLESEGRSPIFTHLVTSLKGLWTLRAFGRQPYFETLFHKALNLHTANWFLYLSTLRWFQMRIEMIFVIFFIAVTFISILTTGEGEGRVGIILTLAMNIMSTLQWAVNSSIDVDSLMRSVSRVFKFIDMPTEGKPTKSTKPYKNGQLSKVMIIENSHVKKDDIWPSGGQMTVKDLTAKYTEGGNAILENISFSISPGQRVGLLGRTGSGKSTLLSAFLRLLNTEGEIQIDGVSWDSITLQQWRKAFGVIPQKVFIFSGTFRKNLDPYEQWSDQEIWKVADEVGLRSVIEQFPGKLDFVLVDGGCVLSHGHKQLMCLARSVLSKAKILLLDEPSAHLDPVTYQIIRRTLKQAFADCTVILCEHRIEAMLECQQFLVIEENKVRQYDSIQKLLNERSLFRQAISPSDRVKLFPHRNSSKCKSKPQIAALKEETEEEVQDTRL
T1 sequence (P11142 2-646 limits assumed, stated change not applied): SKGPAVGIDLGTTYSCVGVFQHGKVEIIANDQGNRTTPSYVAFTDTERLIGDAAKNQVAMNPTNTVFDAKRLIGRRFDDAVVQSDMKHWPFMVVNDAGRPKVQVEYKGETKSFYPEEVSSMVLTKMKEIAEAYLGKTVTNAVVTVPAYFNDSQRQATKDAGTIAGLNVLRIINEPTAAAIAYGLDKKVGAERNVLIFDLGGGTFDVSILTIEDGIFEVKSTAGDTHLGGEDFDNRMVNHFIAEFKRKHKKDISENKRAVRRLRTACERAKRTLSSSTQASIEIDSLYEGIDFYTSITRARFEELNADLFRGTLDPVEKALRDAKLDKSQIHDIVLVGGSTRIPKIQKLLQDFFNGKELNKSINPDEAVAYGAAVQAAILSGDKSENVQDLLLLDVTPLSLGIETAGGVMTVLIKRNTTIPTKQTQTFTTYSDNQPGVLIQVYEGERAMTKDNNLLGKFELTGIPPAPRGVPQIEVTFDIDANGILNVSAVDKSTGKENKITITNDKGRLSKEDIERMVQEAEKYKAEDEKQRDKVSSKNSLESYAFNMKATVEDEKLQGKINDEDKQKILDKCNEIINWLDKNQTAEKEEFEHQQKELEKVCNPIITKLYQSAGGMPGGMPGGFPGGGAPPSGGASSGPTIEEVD

O=C(O)CCCc1ccccc1 [4-PBA, 4-phenylbutyric acid]
toxicity [1]: little toxicity beyond a slightly bitter taste, mild stomach discomfort or mild peripheral edema if severely anemic
recovery of Hsc70 and associated CFTR [2]: unaltered
time for which a constant concentration is maintained under culture conditions [3]: at least 2 days
band C CFTR [4]: promotes appearance of band C CFTR
cAMP-mediated chloride transport [5]: promote functional correction of cAMP-medicated chloride transport
expression of Hsp40 [6]: did not affect
